Experimental data: patent US11338007B2, “Combination formulation of three antiviral compounds” (priority 2016, dated 2022)

How the values were obtained:
genotype 2 or 3 HCV = test: SVR in HCV infected patients given sofosbuvir plus other HCV therapeutics; assay type: in vivo, human; details: 400 mg once daily plus other HCV therapeutics; genotype 2 or 3 HCV infected patients
Description: Safety and tolerability appeared similar across both dose levels. In addition, when sofosbuvir 400 mg once daily plus other HCV therapeutics were given to genotype 2 or 3 HCV infected patients, 100% SVR24 was observed.

[1] = Tablet dissolution, 1.0% w/v CTAB in 190 mM acetate buffer pH 4.0, USP Type II, 75 rpm; assay type: physicochemical
[2] = Photostability of tablet cores and film-coated tablets per ICH Q1B (Table 12); assay type: physicochemical
Description: Tablet cores and film-coated tablets were evaluated per ICH Q1B guidelines with a total of illumination of more than 1.2 million-lux hours and a total irradiance of more than 200 W·hr/m^2.

[3] = Tablet dissolution, 50 mM sodium acetate buffer pH 5.0 with 2.0% w/v Polysorbate 80, USP Type II, 75 rpm; assay type: physicochemical
Description: FIGS. 10-12 depict additional dissolution profiles for the sofosbuvir/velpatasvir SSD/voxilaprevir SSD tablets having the formulation described in Table 13 and which were used in phase 1, 2, and 3 clinical studies, where the dissolution testing was conducted at pH 5.0 acetate buffer containing 2.0% w/v polysorbate 80. Four batches of the sofosbuvir/velpatasvir SSD/voxilaprevir SSD tablets were tested, with Batch A manufactured at 100 kg and Batches B, C and D manufactured at 145 kg. All other aspects of the formulation and manufacturing process were otherwise equivalent. […] Moreover, for Batch A, the amount dissolved at 30 min remained between 98 and 100% for sofosbuvir, between 90 and 92% for velpatasvir SSD, and between 89 and 93% for voxilaprevir SSD. […] For Batch D, the amount dissolved at 30 min remained at 100% for sofosbuvir, between 90 and 91% for velpatasvir SSD, and between 89 and 91% for voxilaprevir SSD. Release of velpatasvir SSD and voxilaprevir SSD from the sofosbuvir/velpatasvir SSD/voxilaprevir SSD tablets associated with all four Batches was complete after 60 minutes.

[4] = Tablet dissolution as a function of medium pH and composition (FIGS. 13-15); assay type: physicochemical; details: Formulation G tablets; independent of medium pH and composition
[5] = Impact of desiccant and packaging configuration on tablet stability (Tables 24A-24C); assay type: physicochemical; details: for I/D (%) / LS (%): tablets;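 on all read-outs here: stability of tablets stored with different desiccant amounts and packaging configurations, evaluating physical and chemical stability plus dissolution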
[6] = Food effect (high calorie/high-fat meals) on pharmacokinetics in human subjects (Table 28); assay type: in vivo; details: tablets 400/100/100 mg; high calorie/high-fat meal
Description: The effect of food (high calorie/high-fat meals) on the pharmacokinetics of sofosbuvir/velpatasvir SSD/voxilaprevir SSD tablets (400/100/100 mg). […] As a result, sofosbuvir/velpatasvir SSD/voxilaprevir SSD tablets are administered with food.

[7] = film-coating 0% weight gain, Exposed to Light
[8] = film-coating 2.1% weight gain, Exposed to Light
[9] = film-coating 2.1% weight gain, Protected from Light
[10] = film-coating 3.4% weight gain, Exposed to Light
[11] = film-coating 3.4% weight gain, Protected from Light
[12] = film-coating 4.1% weight gain, Exposed to Light
[13] = film-coating 4.1% weight gain, Protected from Light
[14] = film-coating 5.4% weight gain, Protected from Light
[15] = closed, 1 g desiccant, 25° C./60% RH, 12 weeks
[16] = closed, 1 g desiccant, 25° C./60% RH, 24 weeks
[17] = closed, 1 g desiccant, 40° C./75% RH, 4 weeks
[18] = closed, 1 g desiccant, 40° C./75% RH, 12 weeks
[19] = closed, 1 g desiccant, 40° C./75% RH, 24 weeks
[20] = closed, 3 g desiccant, 25° C./60% RH, 12 weeks
[21] = closed, 3 g desiccant, 25° C./60% RH, 24 weeks
[22] = closed, 3 g desiccant, 40° C./75% RH, 4 weeks
[23] = closed, 3 g desiccant, 40° C./75% RH, 12 weeks
[24] = closed, 3 g desiccant, 40° C./75% RH, 24 weeks
[25] = closed, no desiccant, 25° C./60% RH, 12 weeks
[26] = closed, no desiccant, 25° C./60% RH, 24 weeks
[27] = closed, no desiccant, 40° C./75% RH, 4 weeks
[28] = closed, no desiccant, 40° C./75% RH, 12 weeks
[29] = closed, no desiccant, 40° C./75% RH, 24 weeks
[30] = desiccant study, Initial, time 0

**Q.** Which results are given for CC(C)OC(=O)C(C)N[P@](=O)(OC[C@H]1O[C@@H](n2ccc(=O)[nH]c2=O)[C@](C)(F)[C@@H]1O)Oc1ccccc1 (stereo in doubt) [sofosbuvir, (S)-isopropyl 2-(((S)-(((2R,3R,4R,5R)-5-(2,4-dioxo-3,4-dihydropyrimidin-1(2H)-yl)-4-fluoro-3-hydroxy-4-methyltetrahydrofuran-2-yl)methoxy)(phenoxy)phosphoryl)amino)propanoate]?
**A.** SVR24 (genotype 2 or 3 HCV): 100%; Dissolved at 30 min ([1]; Lot A (14 ct), 25° C./60% RH Closed, 1 month): 98%; Dissolved at 30 min ([1]; Lot A (14 ct), 25° C./60% RH Closed, 3 months): 103%; Dissolved at 30 min ([1]; Lot A (14 ct), 25° C./60% RH Closed, 6 months): 103%; Dissolved at 30 min ([1]; Lot A (14 ct), 40° C./75% RH Closed, 1 month): 100%; Dissolved at 30 min ([1]; Lot A (14 ct), 40° C./75% RH Closed, 3 months): 100%; Dissolved at 30 min ([1]; Lot A (14 ct), 40° C./75% RH Closed, 6 months): 100%; Dissolved at 30 min ([1]; Lot A (14 ct), 40° C./75% RH Open, 1 month): 98%; Dissolved at 30 min ([1]; Lot A (14 ct), 40° C./75% RH Open, 3 months): 101%; Dissolved at 30 min ([1]; Lot A (14 ct), 40° C./75% RH Open, 6 months): 100%; Dissolved at 30 min ([1]; Lot A (14 ct), Initial): 103%; Dissolved at 30 min ([1]; Lot B (28 ct), 25° C./60% RH Closed, 1 month): 102%; Dissolved at 30 min ([1]; Lot B (28 ct), 25° C./60% RH Closed, 3 months): 100%; Dissolved at 30 min ([1]; Lot B (28 ct), 25° C./60% RH Closed, 6 months): 102%; Dissolved at 30 min ([1]; Lot B (28 ct), 40° C./75% RH Closed, 1 month): 97%; Dissolved at 30 min ([1]; Lot B (28 ct), 40° C./75% RH Closed, 3 months): 99%; Dissolved at 30 min ([1]; Lot B (28 ct), 40° C./75% RH Closed, 6 months): 99%; Dissolved at 30 min ([1]; Lot B (28 ct), Initial): 103%; LS [2, 7]: 101.5%; Total Imp./Deg. Products [2, 7]: 0.0%; Total Imp./Deg. Products ([2]; film-coating 0% weight gain, Protected from Light): 0.0%; LS [2, 8]: 101.7%; Total Imp./Deg. Products [2, 8]: 0.0%; LS [2, 9]: 101.2%; Total Imp./Deg. Products [2, 9]: 0.0%; LS [2, 10]: 100.6%; Total Imp./Deg. Products [2, 10]: 0.0%; LS [2, 11]: 101.8%; Total Imp./Deg. Products [2, 11]: 0.0%; LS [2, 12]: 102.0%; Total Imp./Deg. Products [2, 12]: 0.0%; LS [2, 13]: 101.2%; Total Imp./Deg. Products [2, 13]: 0.0%; Total Imp./Deg. Products ([2]; film-coating 5.4% weight gain, Exposed to Light): 0.0%; LS [2, 14]: 101.0%; Total Imp./Deg. Products [2, 14]: 0.0%; level of degradation products ([2]; tablets film-coated to weight gains 2.1 to 5.4%): 0.0%; loss after exposure to light ([2]; uncoated tablet cores): no change; Dissolved at 30 min ([3]; Batch A, 25° C./60% RH, 3 months): 98%; Dissolved at 30 min ([3]; Batch A, 25° C./60% RH, 6 months): 98%; Dissolved at 30 min ([3]; Batch A, 30° C./75% RH, 3 months): 98%; Dissolved at 30 min ([3]; Batch A, 30° C./75% RH, 6 months): 100%; Dissolved at 30 min ([3]; Batch A, 40° C./75% RH, 1 month): 98%; Dissolved at 30 min ([3]; Batch A, 40° C./75% RH, 3 months): 99%; Dissolved at 30 min ([3]; Batch A, 40° C./75% RH, 6 months): 100%; Dissolved at 30 min ([3]; Batch A, Initial): 98%; Dissolved at 30 min ([3]; Batch B, 25° C./60% RH, 3 months): 99%; Dissolved at 30 min ([3]; Batch B, 25° C./60% RH, 6 months): 99%; Dissolved at 30 min ([3]; Batch B, 30° C./75% RH, 3 months): 99%; Dissolved at 30 min ([3]; Batch B, 30° C./75% RH, 6 months): 99%; Dissolved at 30 min ([3]; Batch B, 40° C./75% RH, 1 month): 100%; Dissolved at 30 min ([3]; Batch B, 40° C./75% RH, 3 months): 100%; Dissolved at 30 min ([3]; Batch B, 40° C./75% RH, 6 months): 98%; Dissolved at 30 min ([3]; Batch B, Initial): 99%; amount dissolved at 30 min ([3]; Batch D): 100%; Dissolved at 30 min ([3]; Batch D, 40° C./75% RH, 1 month): 100%; Dissolved at 30 min ([3]; Batch D, Initial): 100%; dissolution at 30 minutes ([3]; potency study Lot B, after 4 weeks open at 40° C./75% RH): 100%; release at 30 minutes ([3]; tablet Lots A and B with different sofosbuvir particle size): 101%; Dissolved at 30 min (%) ([3]; tablets Batch C, 1 g desiccant, 25° C./60% RH, 3 months): 101%; Dissolved at 30 min (%) ([3]; tablets Batch C, 1 g desiccant, 25° C./60% RH, 6 months): 99%; Dissolved at 30 min (%) ([3]; tablets Batch C, 1 g desiccant, 30° C./75% RH, 3 months): 99%; Dissolved at 30 min (%) ([3]; tablets Batch C, 1 g desiccant, 30° C./75% RH, 6 months): 99%; Dissolved at 30 min (%) ([3]; tablets Batch C, 1 g desiccant, 40° C./75% RH, 1 month): 100%; Dissolved at 30 min (%) ([3]; tablets Batch C, 1 g desiccant, 40° C./75% RH, 3 months): 100%; Dissolved at 30 min (%) ([3]; tablets Batch C, 1 g desiccant, 40° C./75% RH, 6 months): 99%; Dissolved at 30 min (%) ([3]; tablets Batch C, 1 g desiccant, Initial, time 0): 99%; Dissolved at 30 min (%) ([3]; tablets from VEL SSD 7.0% water, VOX SSD 3.2% water, Initial, time 0): 100%; dissolution complete within [4]: ≤ 20 min; total impurities/degradation products ([5]; desiccant study (0, 1, 3 g), all conditions, 6 months): 0.0%; I/D (%) [5, 15]: 0.0%; LS (%) [5, 15]: 99.3%; I/D (%) [5, 16]: 0.0%; LS (%) [5, 16]: 100.4%; I/D (%) [5, 17]: 0.0%; LS (%) [5, 17]: 100.0%; I/D (%) [5, 18]: 0.0%; LS (%) [5, 18]: 99.4%; I/D (%) [5, 19]: 0.0%; LS (%) [5, 19]: 101.7%; I/D (%) [5, 20]: 0.0%; LS (%) [5, 20]: 100.3%; I/D (%) [5, 21]: 0.0%; LS (%) [5, 21]: 101.6%; I/D (%) [5, 22]: 0.0%; LS (%) [5, 22]: 100.0%; I/D (%) [5, 23]: 0.0%; LS (%) [5, 23]: 99.9%; I/D (%) [5, 24]: 0.0%; LS (%) [5, 24]: 102.3%; I/D (%) [5, 25]: 0.0%; LS (%) [5, 25]: 99.3%; I/D (%) [5, 26]: 0.0%; LS (%) [5, 26]: 100.2%; I/D (%) [5, 27]: 0.0%; LS (%) [5, 27]: 101.4%; I/D (%) [5, 28]: 0.0%; LS (%) [5, 28]: 100.3%; I/D (%) [5, 29]: 0.0%; LS (%) [5, 29]: 100.4%; I/D (%) [5, 30]: 0.0%; LS (%) [5, 30]: 102.1%; effect of food on plasma exposure [6]: does not substantially alter
